In patent publication US7517517B2 (Janssen Pharmaceutica N.V., priority 2002, dated 2009):
“And” between values parts separate entries of the source, which are not always exact repeats. Identical values can stand only once. Counter-ions that a name gives are not always drawn. Like-named read-outs stand apart in the source and are kept apart here.

Legend:
rat mGlu1a receptor [1] = molecular target: T1, rat mGlu1a receptor (Rattus norvegicus, UniProt P23385); assay: [3H]Compound A binding to rat mGlu1a receptor CHO-dhfr− membranes (saturation, kinetics, inhibition); conditions: for inhibition of [3H]Compound A binding (in words): rat mGlu1a receptor CHO-dhfr− membranes; for Ki: 2.5 nM [3H]Compound A, 30 min at 4° C.
T1 construct: host or cells: CHO-dhfr- cells

rat mGlu1a receptor [2] = molecular target: T1, rat mGlu1a receptor; assay: [3H]quisqualate binding to rat mGlu1a receptor CHO-dhfr− membranes (saturation, inhibition); conditions: rat mGlu1a receptor CHO-dhfr− membranes; for Hill coefficient / Ki: inhibition of [3H]quisqualate binding, mean ± SD of 2 experiments
mGlu1 receptor = mGlu1 receptor (Rattus norvegicus, UniProt P23385); assay: [3H]Compound A binding to rat brain membranes (cortex, hippocampus, striatum, cerebellum); conditions: tested up to 30 μM
Method: Tissue preparation. Male Wistar rats (˜200 g) were sacrificed by decapitation. The brains were rapidly removed and cortex, hippocampus, striatum and cerebellum were immediately dissected. The fresh tissue was homogenized with an Ultra Turrax in 20 volumes of 50 mM Tris-HCl, pH 7.4 and tissue was centrifuged at 23,500 g for 10 min. After homogenisation using a DUAL homogeniser, membranes were washed twice by centrifugation at 23,500 g for 10 min. The final pellet was suspended in 10 volumes of 50 mM Tris-HCl, pH 7.4 and frozen at −80° C.
In vitro binding assay. After thawing, membranes from rat cortex, cerebellum, striatum and hippocampus were rehomogenized using a DUAL and suspended in ice-cold binding buffer containing 50 mM Tris-HCl, 1.2 mM MgCl2, 2 mM CaCl2, pH 7.4. The binding assay was carried out in a total volume of 0.5 ml containing 2.5 nM [^3H]Compound A and a membrane aliquot corresponding to 40 μg for cerebellar membranes, 60 μg for hippocampal membranes, 80 μg for striatal membranes or 150 μg for cortical membranes. […] After incubation for 30 min at 4° C., the labelled membranes were washed and harvested by rapid vacuum filtration over Whatman GF/C glass-fibre filters using a 40-well filtration manifold and radioactivity collected on the filters was counted as above.
Data analysis was performed using the GraphPad Prism program (GraphPad Prism Software, Inc., San Diego, Calif.). Saturation binding experiments were analysed using a non-linear regression analysis. Inhibition curves were fitted using non-linear regression analysis fitting the one-site competition equation: Y=Bottom+((Top−Bottom)/1+10^X-LogIC50). Ki values were calculated using the Cheng-Prusoff equation: Ki=IC50/[1+([C]/KD)] where C is the concentration of radioligand and KD is the dissociation constant of the radioligand (Cheng and Prusoff, Biochem. Pharmacol. 22, 3099-3108, 1973). The observed on (kob) and off (koff) rate were calculated from association-dissociation curves using the one-phase-exponential association and decay equations in the Prism program, respectively. kon was calculated by subtracting koff from kob and dividing by the radioligand concentration. The two-tailed Student's t-test was used for statistical evaluation of the binding data: * p<0.05, ** p<0.01 and *** p<0.001. The Dunnett's t-test following a 2-way analysis of variance (with as factors compound concentration and experiment) were used to analyse the data from the IP experiments.

[3] = molecular target: T2, cloned rat mGlu1 receptor (Rattus norvegicus, UniProt P23385); assay: Signal transduction at the cloned rat mGlu1 receptor in CHO cells (glutamate-induced Ca2+ rise, FLIPR); format: cell-based
T2 construct: expressed in transfected cells; host or cells: CHO cells
T2 sequence (P23385 19-1199): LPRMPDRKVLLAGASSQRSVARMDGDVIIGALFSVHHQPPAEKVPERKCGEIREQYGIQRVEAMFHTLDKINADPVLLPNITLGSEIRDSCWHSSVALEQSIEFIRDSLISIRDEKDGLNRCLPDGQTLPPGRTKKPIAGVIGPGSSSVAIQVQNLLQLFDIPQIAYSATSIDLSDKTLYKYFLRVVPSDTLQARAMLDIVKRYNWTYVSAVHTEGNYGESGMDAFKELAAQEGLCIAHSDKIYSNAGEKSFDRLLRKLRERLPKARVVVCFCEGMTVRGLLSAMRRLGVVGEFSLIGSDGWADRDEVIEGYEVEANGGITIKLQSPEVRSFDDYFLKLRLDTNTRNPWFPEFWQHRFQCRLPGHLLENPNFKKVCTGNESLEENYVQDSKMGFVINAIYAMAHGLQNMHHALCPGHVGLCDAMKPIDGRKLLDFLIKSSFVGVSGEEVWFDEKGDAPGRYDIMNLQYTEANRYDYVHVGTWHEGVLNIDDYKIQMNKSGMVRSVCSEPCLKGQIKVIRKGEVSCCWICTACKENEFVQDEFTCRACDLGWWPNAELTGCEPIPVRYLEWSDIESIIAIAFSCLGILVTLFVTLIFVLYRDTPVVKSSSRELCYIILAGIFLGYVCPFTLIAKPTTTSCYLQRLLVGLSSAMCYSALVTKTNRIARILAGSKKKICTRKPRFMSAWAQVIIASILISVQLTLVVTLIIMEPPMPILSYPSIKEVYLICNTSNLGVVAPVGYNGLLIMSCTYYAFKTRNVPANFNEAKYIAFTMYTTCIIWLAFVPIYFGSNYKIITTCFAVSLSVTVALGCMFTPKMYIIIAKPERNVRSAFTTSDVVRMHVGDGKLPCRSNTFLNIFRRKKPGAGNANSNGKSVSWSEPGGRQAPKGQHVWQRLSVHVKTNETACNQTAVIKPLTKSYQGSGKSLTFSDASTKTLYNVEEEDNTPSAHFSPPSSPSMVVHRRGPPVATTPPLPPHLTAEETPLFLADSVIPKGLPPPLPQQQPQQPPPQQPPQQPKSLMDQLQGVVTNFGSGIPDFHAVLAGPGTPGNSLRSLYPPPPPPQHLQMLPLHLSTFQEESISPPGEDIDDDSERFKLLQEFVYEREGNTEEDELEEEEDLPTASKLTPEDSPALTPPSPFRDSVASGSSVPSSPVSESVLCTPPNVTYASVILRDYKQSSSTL

T1 sequence (P23385 19-1199): as above

Compound: N[C@@H](Cn1oc(=O)[nH]c1=O)C(=O)O [quisqualate, reference compound]
- inhibition of [3H]Compound A binding (in words) (rat mGlu1a receptor [1]): did not inhibit
- Hill coefficient (rat mGlu1a receptor [2]): 0.98 ± 0.01

Compound: CCc1cc2cc(C(=O)C3CCC(OC)CC3)ccc2nc1-c1ccccc1 (stereo not shown) [Compound 29]
- melting point: 112 °C

Compound: CCc1cc2cc(C(=O)C3CCC(OC)CC3)ccc2nc1-c1cccs1 (stereo not shown) [Compound 30]
- melting point: 142 °C

Compound: N[C@H](C(=O)O)c1ccc(C(=O)O)cc1 [(S)-4CPG, reference compound]
- Ki (rat mGlu1a receptor [1]; mean ± SD of 3–4 experiments): > 1e+06 nM
- inhibition of [3H]Compound A binding (in words) (rat mGlu1a receptor [1]): did not inhibit
- Hill coefficient (rat mGlu1a receptor [2]): 0.98 ± 0.00
- Ki (rat mGlu1a receptor [2]): 4.51 ± 0.78 µM

Compound: CCc1cc2cc(C(=O)C3Cc4ccccc4C3)ccc2nc1Cl [Compound 3]
- melting point: 145 °C

Compound: CCc1cc2cc(C(=O)CC(C)C)ccc2nc1Cl [Compound 2]
- melting point: 82 °C

Compound: O=C(NC12CC3CC(CC(C3)C1)C2)c1cnc2ccccc2n1 [NPS 2390, reference compound]
- Ki (rat mGlu1a receptor [1]; mean ± SD of 3–4 experiments): 1.36 ± 0.5 nM
- Hill coefficient (rat mGlu1a receptor [1]; inhibition of [3H]Compound A-binding, mean ± SD of 3–4 experiments): 0.97 ± 0.02
- Ki (rat mGlu1a receptor [2]): > 1000 µM
- effect on [3H]quisqualate binding (in words) (rat mGlu1a receptor [2]): did not affect

Compound: CCc1cc2cc(C(=O)[C@H]3CC[C@H](OC)CC3)ccc2nc1F [Compound 20]
- melting point: 114 °C

Compound: CCc1cc2cc(C(=O)[C@H]3CC[C@@H](OC)CC3)ccc2nc1I [Compound 21]
- melting point: 110 °C

Compound: N[C@H](C(=O)O)c1ccc(C(=O)O)c(O)c1 [(S)-4C-3HPG, reference compound]
- inhibition of [3H]Compound A binding (in words) (rat mGlu1a receptor [1]): did not inhibit

Compound: CCc1cc2cc(C(=O)C3CCC(OC)CC3)ccc2[nH]c1=O (stereo not shown) [Compound 9]
- melting point: 226 °C

Compound: CCc1cc2cc(-c3cc4ccccc4o3)ccc2nc1C [Compound 515]
- melting point: 134 °C

Compound: CCc1cc2cc(C(=O)C3CCC(OC)CC3)ccc2nc1C(C)=O (stereo not shown) [Compound 6]
- melting point: 108 °C

Compound: Cc1cccc(C#Cc2ccccc2)n1 [MPEP, reference compound]
- effect on [3H]Compound A binding to rat cerebellar membranes (mGlu1 receptor): did not affect

Compound: CCc1cnc2ccc(C(=O)C3CCC(OC)CC3)cc2c1 (stereo not shown) [Compound 25]
- melting point: 88 °C

Compound: N[C@H](C(=O)O)c1ccc(C(=O)O)c(O)c1 [(S)-4C3HPG]
- Ki (rat mGlu1a receptor [1]; mean ± SD of 3–4 experiments): > 1e+06 nM
- Hill coefficient (rat mGlu1a receptor [2]): 0.98 ± 0.02
- Ki (rat mGlu1a receptor [2]): 1.65 ± 0.06 µM

Compound: N[C@@]1(C(=O)O)CC[C@@H](C(=O)O)C1 [1S,3R-ACPD, reference compound]
- inhibition of [3H]Compound A binding (in words) (rat mGlu1a receptor [1]): did not inhibit
- Hill coefficient (rat mGlu1a receptor [2]): 0.97 ± 0.01

Compound: C#Cc1nc2ccc(C(=O)C3CCC(OC)CC3)cc2cc1CC (stereo not shown) [Compound 15]
- IC50 ([3]; inhibition of glutamate-induced intracellular Ca2+ rise, CHO cells expressing mGlu1 receptor, compounds with pIC50 between 7 and 8): 11.7 nM
- melting point: 132 °C and 133 °C

Compound: CCc1cc2cc(C(=O)[C@H]3CC[C@@H](OC)CC3)ccc2nc1Cl [Compound 4]
- melting point: 123 °C

Compound: CCc1cc2cc(C(=O)C3CCC(OC)CC3)ccc2nc1C#C[Si](C)(C)C (stereo not shown) [Compound 14]
- IC50 [3]: 63.1 nM
- melting point: 114 °C

Compound: CCc1cc2cc(/C=C/c3ccccc3)ccc2nc1C [Compound 471]
- melting point: 140 °C

Compound: CCc1cc2cc(-c3cc4c(o3)CCCC4)ccc2nc1C (as salt: HCl) [Compound 526]
- melting point: 248 °C

Compound: CCc1cc2cc(C(=O)[C@H]3CC[C@@H](OC)CC3)ccc2nc1NCCOC [Compound 10]
- melting point: 115 °C

Compound: CCOC(=O)c1cc2cc(C(=O)Cc3ccccc3)ccc2nc1C [Compound 306]
- melting point: 136 °C

Compound: Cc1cc2cc(C(=O)C3CCCCC3)ccc2[nH]c1=O [Compound 50, 6-(cyclohexylcarbonyl)-3-methyl-2(1H)-quinolinone]
- melting point: 256.1 °C

Compound: Cc1cc(C(=O)O)ccc1[C@H](N)C(=O)O [LY367385, reference compound]
- Ki (rat mGlu1a receptor [1]; mean ± SD of 3–4 experiments): > 1e+06 nM
- inhibition of [3H]Compound A binding (in words) (rat mGlu1a receptor [1]): did not inhibit
- Hill coefficient (rat mGlu1a receptor [2]): 0.99 ± 0.01
- Ki (rat mGlu1a receptor [2]): 1.18 ± 0.47 µM

Compound: CCc1cc2cc(C(=O)C3CCC(OC)CC3)ccc2nc1F (stereo not shown) [Compound 19]
- melting point: 92 °C

Compound: CCc1cc2cc(C(=O)C3CCC(OC)CC3)ccc2nc1C (stereo not shown) [Compound 27]
- pIC50 ([3]; 50% inhibition of the glutamate-induced intracellular Ca2+ rise, CHO cells, FLIPR): 8.527
- melting point: 110 °C

Compound: CCc1cc2cc(C(=O)C3CCC(OC)CC3)ccc2nc1-c1ccsc1 (stereo not shown) [Compound 31]
- melting point: 113 °C

Compound: c1ccc2c(-c3ccc4nc5c(cc4c3)CCS5)noc2c1 [Compound 514]
- melting point: 185 °C
